PubChem BioAssay (NCI)
Several values for one entry are separate records, joined by “and”; a condition that tells them apart may be missing. Equal entries are not always repeated.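 Five concentrations, 48 hours, 96-well plates. GI50 = concentration required for 50% inhibition of growth. TGI denotes the concentration required for complete inhibition of growth.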

Experiments:
Assay in all cases: growth of human tumour cells (NCI), 48 h
CCRF-CEM leukemia = system: CCRF-CEM leukemia
HCT-15 colon = system: HCT-15 colon
HOP-62 NSCLC = system: HOP-62 NSCLC
M14 melanoma = system: M14 melanoma
NCI-H460 lung = system: NCI-H460 lung
NCI-H522 lung = system: NCI-H522 lung
RPMI-8226 leukemia = system: RPMI-8226 leukemia
RXF 393 renal = system: RXF 393 renal
U251 CNS = system: U251 CNS
UACC-62 melanoma = system: UACC-62 melanoma

Structure (SMILES) | TGI (CCRF-CEM leukemia) | TGI (HCT-15 colon) | TGI (HOP-62 NSCLC) | TGI (M14 melanoma) | TGI (NCI-H460 lung) | TGI (NCI-H522 lung) | TGI (RPMI-8226 leukemia) | TGI (RXF 393 renal) | TGI (U251 CNS) | TGI (UACC-62 melanoma) | GI50 (CCRF-CEM leukemia) | GI50 (HCT-15 colon) | GI50 (NCI-H460 lung) | GI50 (NCI-H522 lung) | GI50 (RPMI-8226 leukemia) | GI50 (RXF 393 renal) | GI50 (U251 CNS) | GI50 (UACC-62 melanoma)
Oc1ccccc1/C=N/c1nc2cc3sc(/N=C/c4ccccc4O)nc3cc2s1 | > 100 µM | > 100 µM | > 100 µM | > 100 µM | > 100 µM | > 100 µM | > 100 µM | > 85.3 µM | > 100 µM | > 100 µM | – | – | – | – | – | – | – | –
Cc1c(C(=O)CSc2nc3ccccc3c(=O)n2-c2ccccc2)c(=O)n(-c2ccccc2)n1C | > 100 µM | > 100 µM | 69.1 µM | > 100 µM | > 100 µM | 79.5 µM | > 100 µM | – | 69.2 µM | – | – | – | – | – | – | – | – | –
CCOC(=N)n1c(=O)n(C2=NCCN2)c2ccccc21 | > 100 µM | > 100 µM | > 100 µM | > 100 µM | > 100 µM | > 100 µM | – | > 100 µM | > 100 µM | > 100 µM | – | – | – | – | – | – | – | –
CCOC(=O)c1c(-c2ccc(OC)cc2)c(C#N)c(=S)n(C2OC(COC(C)=O)C(OC(C)=O)C(OC(C)=O)C2OC(C)=O)c1C (stereo not drawn) | > 100 µM | > 100 µM | > 100 µM | > 100 µM | > 100 µM | > 100 µM | – | > 100 µM | > 100 µM | > 100 µM | – | – | – | – | – | – | – | –
COCOc1ccc(Cn2c(=O)n(C)c(=O)c3c2ncn3C)cc1[N+](=O)[O-] | > 100 µM | > 100 µM | – | > 100 µM | > 100 µM | > 100 µM | > 100 µM | > 100 µM | > 100 µM | > 100 µM | – | – | – | – | – | – | – | –
O=C(NC(Cc1ccc(I)cc1)C(=O)O)c1ccc(I)cc1 (stereo not drawn) | > 100 µM | > 100 µM | > 100 µM | – | > 100 µM | > 100 µM | > 100 µM | > 100 µM | > 100 µM | > 82.1 µM | – | – | – | – | – | – | – | –
O=C(/C=C/c1ccsc1)c1ccsc1 | 45.2 µM | 41.5 µM | > 100 µM | 66.4 µM | 69.6 µM | – | 47.2 µM | – | 37.7 µM | 89.9 µM | – | – | – | – | – | – | – | –
C=CCn1c(=O)ccn(COCCO)c1=O | > 100 µM | – | > 100 µM | > 100 µM | > 100 µM | > 100 µM | > 100 µM | > 100 µM | > 100 µM | – | – | – | – | – | – | – | – | –
COc1cc([N+](=O)[O-])c(OC)cc1-c1nc2sc(Cl)cn2c1/C=N/Nc1ccccn1 | > 50 µM | > 50 µM | – | – | > 50 µM | > 50 µM | > 50 µM | 26.2 µM | 14.3 µM | > 50 µM | > 50 µM | 28.1 µM | 15.8 µM | > 50 µM | 30.1 µM | 12.6 µM | 7.65 µM | 26 µM
COc1nc(C#CCC(C)O)nc(OC)n1 (stereo not drawn) | – | 45.6 µM | 36.8 µM | 39.6 µM | > 100 µM | 34 µM | – | 24.2 µM | 76.9 µM | 37.3 µM | – | – | – | – | – | – | – | –
CC(=O)N/N=C1\NC(=O)C[C@H]2[C@@H]3CC=C4C[C@@H](OC(C)=O)CC[C@]4(C)[C@H]3CC[C@]12C | > 100 µM | > 100 µM | 32.5 µM | > 100 µM | – | > 100 µM | > 100 µM | – | 28.7 µM | 59 µM | – | – | – | – | – | – | – | –
C=CC[C@]12C[C@@H](C(=O)OC)N(C(=O)OC)[C@H]1N(S(=O)(=O)c1ccccc1)c1ccccc12 | > 100 µM | > 100 µM | > 100 µM | – | > 100 µM | > 100 µM | > 100 µM | 66.9 µM | > 100 µM | – | – | – | – | – | – | – | – | –
Cc1cc2[nH]c3[nH]c(=O)[nH]c(=O)c3c2cc1C | > 100 µM | > 100 µM | > 100 µM | > 100 µM | – | > 100 µM | > 100 µM | > 100 µM | – | > 100 µM | – | – | – | – | – | – | – | –
O=S(=O)(O)c1cc2ccc1/C=C\c1ccc(cc1S(=O)(=O)O)N=Nc1ccc(c(S(=O)(=O)O)c1)/C=C\c1ccc(cc1S(=O)(=O)O)N=N2 | > 100 µM | > 100 µM | > 100 µM | – | > 100 µM | > 100 µM | > 100 µM | > 100 µM | > 100 µM | > 100 µM | – | – | – | – | – | – | – | –
NNC(=O)c1ccc[n+](CCc2ccccc2)c1 | – | > 100 µM | > 100 µM | > 100 µM | > 100 µM | > 100 µM | > 100 µM | > 100 µM | > 100 µM | > 100 µM | – | – | – | – | – | – | – | –
COc1ccc(CC(O)CN2CCOCC2)cc1 (stereo not drawn) | > 100 µM | > 100 µM | > 100 µM | > 100 µM | > 100 µM | > 100 µM | – | > 100 µM | > 100 µM | > 100 µM | – | – | – | – | – | – | – | –
C=CCOC(=O)CC[N+]1=CCC(c2ccccc2)(c2ccccc2)O1 | – | > 100 µM | > 100 µM | > 100 µM | > 100 µM | > 100 µM | – | > 100 µM | > 100 µM | > 100 µM | – | – | – | – | – | – | – | –
CC[C@H]1CN2CCc3cc(OC)c(OC)cc3[C@@H]2C[C@@H]1C[C@H]1NCCc2cc(OC)c(OC)cc21 | 0.0656 µM | 0.76 µM and 1.27 µM | 0.216 µM and 0.221 µM | 0.0512 µM and 0.0606 µM | 0.0713 µM and 0.03 µM | 0.0392 µM and 0.0356 µM | 0.151 µM and 0.0175 µM | 0.0593 µM | – | 0.206 µM and 0.0957 µM | 0.0215 µM | – | – | – | – | – | – | –
Cc1cc(=O)c2c([nH]1)NS(=O)(=O)NC2=O | > 100 µM | > 100 µM | > 100 µM | > 100 µM | – | > 100 µM | > 100 µM | – | – | > 100 µM | – | – | – | – | – | – | – | –
CC(C)COP(=O)(OCC(C)C)C(NS(=O)(=O)c1ccccc1)(C(F)(F)F)C(F)(F)F | 36.6 µM | 23.8 µM | 35.1 µM | 43.2 µM | – | 17.4 µM | 6.46 µM | 21.1 µM | 17.3 µM | 19.1 µM | – | – | – | – | – | – | – | –
CS(=O)(=O)OCCn1c(=O)n(CCOS(C)(=O)=O)c(=O)n(CCOS(C)(=O)=O)c1=O | > 100 µM | > 100 µM | > 100 µM | – | > 100 µM | – | > 100 µM | > 100 µM | > 100 µM | > 100 µM | – | – | – | – | – | – | – | –
CC(=O)N(C(C)=O)C1=C2c3ccccc3N(S(=O)(=O)c3ccccc3)C2n2c(=O)n(-c3ccccc3)c(=O)n2C1 (stereo not drawn) | > 100 µM | > 100 µM | > 100 µM | 69.4 µM | 42.3 µM | 39.5 µM | 40.2 µM | – | > 100 µM | 35.8 µM | – | – | – | – | – | – | – | –
CCOC(=O)/C=C(\C)c1ccc(C)cc1C | > 100 µM | 88.6 µM | – | > 100 µM | > 100 µM | – | 68.2 µM | 27.7 µM | > 100 µM | – | – | – | – | – | – | – | – | –
